According to patent EP2236511A2, “LIGANDS OF ALPHA-ADRENOCEPTORS AND OF DOPAMINE, HISTAMINE, IMIDAZOLINE AND SEROTONIN RECEPTORS AND THE USE THEREOF” (priority 2007, dated 2009):
Where a name gives a salt, the structure may show the parent alone. Read-outs that look alike come from different tables or passages of the source.

Columns and labels:
[1] = biological target: T1, adrenergic receptor α1A (Rattus norvegicus, UniProt P43140); experiment: Radioligand binding to adrenergic receptor α1A ([3H] Prazosin, rat submaxillary gland membranes); settings: for nH: Receptor α1A
T1 construct: membrane species from rat submaxillary glands (rat of Wistar breed) are prepared; from tissue; host or cells: rat (Wistar) submaxillary gland
T1 sequence (P43140 1-466): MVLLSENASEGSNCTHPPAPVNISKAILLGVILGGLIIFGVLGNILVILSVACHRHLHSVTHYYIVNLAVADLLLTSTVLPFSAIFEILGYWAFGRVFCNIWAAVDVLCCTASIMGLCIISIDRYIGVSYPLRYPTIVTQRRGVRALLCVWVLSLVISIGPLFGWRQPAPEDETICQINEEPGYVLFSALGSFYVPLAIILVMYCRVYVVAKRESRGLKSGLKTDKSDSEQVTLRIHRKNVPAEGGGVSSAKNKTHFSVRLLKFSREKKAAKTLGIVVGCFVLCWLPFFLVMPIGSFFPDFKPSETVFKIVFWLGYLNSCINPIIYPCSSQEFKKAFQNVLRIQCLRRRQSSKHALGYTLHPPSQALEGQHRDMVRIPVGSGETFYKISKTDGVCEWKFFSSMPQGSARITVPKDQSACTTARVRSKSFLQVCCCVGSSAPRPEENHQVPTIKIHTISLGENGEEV
Experimental: Determination of investigated compounds' binding to α1A receptor was carried out according to the method described in [Michel AD, Loury DN and Whiting R1. Identification of a single α1A-adrenoceptor corresponding to the α1A-subtype in rat submaxillary gland. […] Prazosin is used as positive control.

[2] = biological target: T2, adrenergic receptor α1B (Rattus norvegicus, UniProt P15823); experiment: Radioligand binding to adrenergic receptor α1B ([3H] Prazosin, rat liver membranes); settings: for nH: Receptor α1B
T2 construct: membrane species from rat liver (rat of Wistar breed) are prepared; from tissue; host or cells: rat (Wistar) liver
T2 sequence (P15823 1-515): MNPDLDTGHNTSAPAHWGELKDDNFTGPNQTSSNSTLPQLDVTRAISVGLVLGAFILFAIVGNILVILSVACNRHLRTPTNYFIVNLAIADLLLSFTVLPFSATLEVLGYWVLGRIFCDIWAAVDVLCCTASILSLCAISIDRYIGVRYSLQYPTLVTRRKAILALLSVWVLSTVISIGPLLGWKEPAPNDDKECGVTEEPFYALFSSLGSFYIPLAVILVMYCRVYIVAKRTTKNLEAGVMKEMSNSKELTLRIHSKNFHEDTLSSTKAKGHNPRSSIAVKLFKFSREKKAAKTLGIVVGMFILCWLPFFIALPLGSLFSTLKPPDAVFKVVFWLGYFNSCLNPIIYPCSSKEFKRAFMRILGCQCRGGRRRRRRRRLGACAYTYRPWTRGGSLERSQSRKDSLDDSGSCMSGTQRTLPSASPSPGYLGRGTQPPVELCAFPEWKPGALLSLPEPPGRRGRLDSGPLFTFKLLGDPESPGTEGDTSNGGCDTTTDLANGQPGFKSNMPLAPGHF
Description: Species heterogeneity of hepatic α1A-, α1B-, and α1C-subtypes. Biochem Biophys Res Commun. […] Prazosin is used as positive control.

[3] = biological target: T3, human α2A receptor (Homo sapiens, UniProt P08913); experiment: Radioligand binding to adrenergic receptor α2A ([3H] MK-912, Sf9 membranes); settings: for nH: Receptor α2A
T3 construct: expressed in transfected cells; host or cells: Sf9
T3 sequence (P08913 1-465): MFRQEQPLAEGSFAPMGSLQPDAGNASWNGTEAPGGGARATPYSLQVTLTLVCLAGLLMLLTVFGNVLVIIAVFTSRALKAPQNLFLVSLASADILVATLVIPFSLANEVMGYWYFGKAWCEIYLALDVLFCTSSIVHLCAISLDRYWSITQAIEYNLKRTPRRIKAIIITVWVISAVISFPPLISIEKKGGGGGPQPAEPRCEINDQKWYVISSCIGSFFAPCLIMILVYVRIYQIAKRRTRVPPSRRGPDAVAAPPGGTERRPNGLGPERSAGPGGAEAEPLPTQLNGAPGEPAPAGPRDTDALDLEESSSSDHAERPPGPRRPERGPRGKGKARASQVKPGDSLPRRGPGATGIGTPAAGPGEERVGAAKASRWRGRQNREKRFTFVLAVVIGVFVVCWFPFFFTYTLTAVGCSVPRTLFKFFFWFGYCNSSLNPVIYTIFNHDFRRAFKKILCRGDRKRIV
Description: For this purpose sDNA of human α2A receptor is expressed in Sf9 cells, as described in [Uhlen S, Porter AC and Neubig RR. […] J Pharmacol ExpTher. […] J Pharmacol ExpTher. […] Yohimbine is used as positive control.

[4] = biological target: T4, recombinant human 5-HT2C receptor (Homo sapiens, UniProt P28335); experiment: Radioligand binding to serotonin receptor 5-HT2C ([3H] Mesulergine, CHO-K1 membranes); settings: for nH: 5-HT2C
T4 construct: expressed in transfected cells; host or cells: CHO-K1
T4 sequence (P28335 33-458): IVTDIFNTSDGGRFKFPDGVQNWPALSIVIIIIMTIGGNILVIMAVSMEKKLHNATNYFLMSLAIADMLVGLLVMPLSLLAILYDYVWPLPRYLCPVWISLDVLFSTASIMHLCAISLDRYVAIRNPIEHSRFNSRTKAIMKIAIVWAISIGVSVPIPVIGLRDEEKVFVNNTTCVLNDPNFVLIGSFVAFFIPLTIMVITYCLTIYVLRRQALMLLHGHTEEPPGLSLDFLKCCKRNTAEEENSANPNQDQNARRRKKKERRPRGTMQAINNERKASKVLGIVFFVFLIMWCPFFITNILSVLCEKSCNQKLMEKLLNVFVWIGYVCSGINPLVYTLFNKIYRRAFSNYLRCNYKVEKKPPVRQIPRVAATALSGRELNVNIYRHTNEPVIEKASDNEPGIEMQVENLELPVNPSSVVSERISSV
Description: J Neurochem. 69: 1449 - 1458, 1997]. […] SB242084 is used as positive control.

[5] = biological target: T5, recombinant human 5-HT6 receptor (Homo sapiens, UniProt P50406); experiment: Radioligand binding to serotonin receptor 5-HT6 ([3H] Lysergic acid diethylamide, HeLa membranes)
T5 construct: expressed in transfected cells; host or cells: HeLa
Description: Mol Pharmacol. 43:320-327, 1993]. […] Methiothepin is used as positive control.

[6] = system: imidazoline receptor I2; experiment: Radioligand binding to imidazoline receptor I2 ([3H] Idazoxan, rat brain membranes)
Experimental: For this purpose membrane species are prepared from rat (Wistar) brain homogenates by homogenization of them in glass homogenizer with the subsequent separation of plasmatic membranes from cell nuclei, mitochondrias and cell wreckages by differential centrifugation. […] After incubation the samples are filtered in vacuo on glass-microfiber filters G/F (Millipor, USA), filters are washed three times with cold solution of medium and radioactivity is measured by scintillation counter MicroBeta 340 (Perkin Elmer, USA). […] Idazoxan is used as positive control.
The tested compounds' binding to the receptor is determined by their ability to displace the radioligand and expressed in percent of displacement (%I). Values of %I are calculated according to the following equation: %I = (TA-CA)/(TA-NA)*100, [formula] wherein: TA - is the overall radioactivity in the presence of radioligand only, CA - is the radioactivity in the presence of radioligand and tested compound and NA - is a radioactivity in the presence of radioligand and Idazoxan (1 µM).

[7] = biological target: T6, serotonin receptor 5-HT1B (Rattus norvegicus, UniProt P28564); experiment: Radioligand binding to serotonin receptor 5-HT1B ([125I] cyanopindolol, rat brain cortex membranes)
T6 construct: membrane species are prepared from rat brains (Wistar) by homogenization of species of rat brain-cortices; from tissue; host or cells: rat (Wistar) brain cortex
Description: Serotonin is used as positive control.

[8] = biological target: T7, recombinant human 5-HT2B receptor (Homo sapiens, UniProt P41595); experiment: Radioligand binding to serotonin receptor 5-HT2B ([3H] Lysergic acid diethylamide, CHO-K1 membranes)
T7 construct: expressed in transfected cells; host or cells: CHO-K1
Experimental: For this purpose membrane species are prepared from CHO-K1 cells comprising recombinant human 5-HT2B receptor by homogenization of recombinant cells in glass homogenizer with the subsequent separation of plasmatic membranes from cell nuclei, mitochondrias and cell wreckages by differential centrifugation. […] After incubation the samples are filtered in vacuo on glass-microfiber filters G/F (Millipor, USA), filters are washed three times with cold solution of medium and radioactivity is measured by scintillation counter MicroBeta 340 (Perkin Elmer, USA). […] Ketanserin is used as positive control. The tested compounds' binding to the receptor is determined by their ability to displace the radioligand and is expressed in percent of displacement (%I). Values of %I are calculated according to the following equation: %I = (TA-CA)/(TA-NA)*100, [formula] wherein: TA - is the overall radioactivity in the presence of radioligand only, CA - is the radioactivity in the presence of radioligand and tested compound and NA - is the radioactivity in the presence of radioligand and Serotonin (10 µM).

[9] = read-out: α-Adrenoceptor, % inhibition α1A
[10] = read-out: α-Adrenoceptor, % inhibition α1B
[11] = read-out: α-Adrenoceptor, % inhibition α2A
[12] = last block of Table 11: receptor printed 5-HT6 in r18, cell blank in r19-r21

T6 sequence (P28564 whole entry): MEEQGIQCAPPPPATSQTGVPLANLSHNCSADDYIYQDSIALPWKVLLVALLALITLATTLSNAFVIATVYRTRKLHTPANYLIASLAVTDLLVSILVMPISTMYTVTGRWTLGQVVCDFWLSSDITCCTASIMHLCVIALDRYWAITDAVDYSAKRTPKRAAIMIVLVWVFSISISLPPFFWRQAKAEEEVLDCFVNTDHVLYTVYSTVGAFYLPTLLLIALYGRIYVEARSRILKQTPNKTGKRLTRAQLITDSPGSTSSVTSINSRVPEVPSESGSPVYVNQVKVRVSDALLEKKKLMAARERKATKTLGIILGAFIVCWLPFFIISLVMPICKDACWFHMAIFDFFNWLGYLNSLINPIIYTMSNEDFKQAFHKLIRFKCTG
T7 sequence (P41595 whole entry): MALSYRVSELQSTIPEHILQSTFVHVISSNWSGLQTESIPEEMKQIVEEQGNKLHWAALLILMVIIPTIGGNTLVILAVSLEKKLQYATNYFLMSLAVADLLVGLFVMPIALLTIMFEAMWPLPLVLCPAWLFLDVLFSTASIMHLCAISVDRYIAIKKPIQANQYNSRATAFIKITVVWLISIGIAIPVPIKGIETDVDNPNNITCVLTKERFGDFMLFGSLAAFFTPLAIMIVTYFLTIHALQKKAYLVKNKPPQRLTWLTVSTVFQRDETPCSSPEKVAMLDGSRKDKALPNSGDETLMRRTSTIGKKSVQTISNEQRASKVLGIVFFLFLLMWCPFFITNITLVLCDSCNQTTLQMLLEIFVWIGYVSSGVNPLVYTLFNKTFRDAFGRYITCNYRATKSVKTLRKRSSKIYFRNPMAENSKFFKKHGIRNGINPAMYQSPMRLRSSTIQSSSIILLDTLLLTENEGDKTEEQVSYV
T5 sequence (P50406 whole entry): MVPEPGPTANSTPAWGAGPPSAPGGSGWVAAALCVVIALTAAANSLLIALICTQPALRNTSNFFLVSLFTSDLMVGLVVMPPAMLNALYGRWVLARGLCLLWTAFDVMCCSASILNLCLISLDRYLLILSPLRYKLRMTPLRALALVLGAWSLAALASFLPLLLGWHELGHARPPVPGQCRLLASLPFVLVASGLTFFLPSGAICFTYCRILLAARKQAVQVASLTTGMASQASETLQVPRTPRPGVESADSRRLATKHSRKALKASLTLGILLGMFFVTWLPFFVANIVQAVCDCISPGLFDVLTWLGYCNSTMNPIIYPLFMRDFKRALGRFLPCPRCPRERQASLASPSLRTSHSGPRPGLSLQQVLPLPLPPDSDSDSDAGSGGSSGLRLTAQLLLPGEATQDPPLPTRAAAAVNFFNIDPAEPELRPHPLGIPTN

## Cc1ccc2c(c1)[C@@H]1CN(C)CCC[C@@H]1N2CCc1cccnc1 (relative stereo) [1.6.1(1)·3HCl]
[1]; [9]
  inhibition at 10 µM: 90%
[2]; [10]
  inhibition at 10 µM: 94%
[3]; [11]
  inhibition at 10 µM: 84%
[4]; read-out: 5-HT2C % inhibition
  inhibition at 1 µM: 95%
[5]; read-out: 5-HT6 % inhibition
  inhibition at 1 µM: 84%
[6]; 10 µM ligand
  % inhibition: 80%

## Cc1ccc2c(c1)[C@@H]1CN(C)CCC[C@@H]1N2CCc1ccc(C)nc1 (relative stereo) [1.6.1(2)·3HCl]
[2]; [10]
  inhibition at 10 µM: 93%
[3]; [11]
  inhibition at 10 µM: 82%
[7]; read-out: 5-HT1B % inhibition
  inhibition at 10 µM: -6%
[8]; read-out: 5-HT2B % inhibition
  inhibition at 10 µM: -2%
[4]; read-out: 5-HT2C % inhibition
  inhibition at 10 µM: 4%
[5]; read-out: 5-HT6 % inhibition
  inhibition at 1 µM: 76%
  inhibition at 10 µM: -10%
[6]; 10 µM ligand
  % inhibition: 80%

## Cc1ccc2c(c1)c1c(n2CCc2ccccc2)CCN(C)C1 [1.1.2(1-2)·HCl, 2,8-dimethyl-5-phenethyl-1,2,3,4-tetrahydro-1H-pyrido[4,3-b]indole hydrochloride]
[1]; [9]
  inhibition at 10 µM: 99%
[2]; [10]
  inhibition at 10 µM: 101%
[3]; [11]
  inhibition at 10 µM: 95%
[7]; read-out: 5-HT1B % inhibition
  inhibition at 10 µM: 82%
[8]; 5-HT2B
  nH: 0,868
[8]; read-out: 5-HT2B % inhibition
  inhibition at 10 µM: 100%
[6]
  IC50: 268 nM
  Ki: 179 nM
[6]; 10 µM ligand
  % inhibition: 93%

## Cc1ccc(CCn2c3c(c4cc(C)ccc42)CN(C)CC3)cc1 [1.1.2(1-3), 2,8-dimethyl-5-[2-(4-methylphenyl)-ethyl]-1,2,3,4-tetrahydro-1H-pyrido[4,3-b]indole]
[1]
  nH: 1,26
[2]
  nH: 1,13
[3]
  nH: 1.12
[7]; 10 µM ligand
  5-HT1B % inhibition: 59%
[8]; 10 µM ligand
  5-HT2B % inhibition: 95%
[4]; 10 µM ligand
  5-HT2C % inhibition: 98%
[6]; 10 µM ligand
  % inhibition: 93%

## Cc1ccc2c(c1)c1c(n2CCc2ccccn2)CCN(C)C1 [1.1.2(2-3)·2HCl]
[1]; [9]
  inhibition at 10 µM: 81%
[2]; [10]
  inhibition at 10 µM: 98%
[3]; [11]
  inhibition at 10 µM: 93%
[7]; read-out: 5-HT1B % inhibition
  inhibition at 1 µM: 65%
[8]; 5-HT2B
  nH: 0.913
[8]; read-out: 5-HT2B % inhibition
  inhibition at 1 µM: 89%
[4]; read-out: 5-HT2C % inhibition
  inhibition at 1 µM: 96%
[5]
  IC50: 2.14 nM
  Ki: 1.23 nM
[5]; 5-HT6
  nH: 0.744
[5]; [12]
  nH: 0.655
[6]; 10 µM ligand
  % inhibition: 88%

## Cc1ccc2c(c1)c1c(n2CCc2ccc(C)nc2)CCN(C)C1 [1.1.2(4-2)·2HCl]
[1]; 10 µM ligand, read-out: α-Adrenoceptor, % inhibition α1A
  inhibition at 10 µM: 97%
[1]
  nH: 1.12
[2]; 10 µM ligand, read-out: α-Adrenoceptor, % inhibition α1B
  inhibition at 10 µM: 101%
[2]
  nH: 1.54
[3]; 10 µM ligand, read-out: α-Adrenoceptor, % inhibition α2A
  inhibition at 10 µM: 95%
[3]
  nH: 0.828
[7]; 10 µM ligand, read-out: 5-HT1B % inhibition
  inhibition at 10 µM: 19%
[8]; 10 µM ligand, read-out: 5-HT2B % inhibition
  inhibition at 10 µM: 47%
[4]; 10 µM ligand, read-out: 5-HT2C % inhibition
  inhibition at 10 µM: 76%
[5]; 10 µM ligand, read-out: 5-HT6 % inhibition
  inhibition at 10 µM: 90%
[6]
  IC50: 310 nM
  Ki: 210 nM
[6]; 10 µM ligand
  % inhibition: 98%

## Cc1ccc2c(c1)c1c(n2CCc2ccccn2)CCCN(C)C1 [1.2.2(2-2)]
[1]; 10 µM ligand
  α-Adrenoceptor, % inhibition α1A: 64%
[2]; 10 µM ligand
  α-Adrenoceptor, % inhibition α1B: 80%
[3]; 10 µM ligand
  α-Adrenoceptor, % inhibition α2A: 90%
[7]; 10 µM ligand
  5-HT1B % inhibition: 6%
[5]; 10 µM ligand
  5-HT6 % inhibition: 21%
[6]; 10 µM ligand
  % inhibition: 80%

## CN1CCc2c(c3ccccc3n2Cc2ccccc2)C1 [1.9(1)·1/2NDSA, bis-(5-benzyl-2-methyl-2,3,4,5-tetrahydro-1H-pyrido[4,3-b]indole) naphthalene-1,5-disulfonate]
[1]
  nH: 1,08
[1]; [9]
  inhibition at 1 µM: 67%
[2]
  nH: 0,956
[2]; [10]
  inhibition at 3 µM: 62%
[3]
  nH: 1,13
[3]; [11]
  inhibition at 0.3 µM: 73%
[7]; read-out: 5-HT1B % inhibition
  inhibition at 0.3 µM: 4%
[8]; 5-HT2B
  IC50: 31.4 nM
  Ki: 20 nM
  nH: 0.552
[4]
  nH: 0.987
[5]; 5-HT6
  nH: 1.07
[5]; read-out: 5-HT6 % inhibition
  inhibition at 0.3 µM: 78%
[6]
  IC50: 169 nM
  Ki: 110 nM
[6]; 0.3 µM ligand
  % inhibition: 87(0.3 µM) %

## CN1CCc2c(c3ccccc3n2Cc2ccccc2)C1.Cl [1.9(1)·HCl, 5-benzyl-2-methyl-2,3,4,5-tetrahydro-1H-pyrido[4,3-b]indole hydrochloride]
[1]; [9]
  inhibition at 10 µM: 70%
[2]; [10]
  inhibition at 10 µM: 70%
[3]; [11]
  inhibition at 10 µM: 100%
[7]; read-out: 5-HT1B % inhibition
  inhibition at 10 µM: 13%
[8]; 5-HT2B
  nH: 0.836
[8]; read-out: 5-HT2B % inhibition, 10 µM ligand
  inhibition at 10 µM: 99%
[4]
  nH: 1.21
[4]; read-out: 5-HT2C % inhibition
  inhibition at 0.1 µM: 79%
  inhibition at 10 µM: 97%
[5]
  IC50: 110 nM
  Ki: 63.2 nM
[5]; 5-HT6
  nH: 1.04
[5]; [12]
  nH: 1.32
[5]; read-out: 5-HT6 % inhibition
  inhibition at 10 µM: 71%
[6]; 3 µM ligand
  % inhibition: 75 (3 µM) %
[6]; hydrochloride
  IC50: 994 nM
  Ki: 662 nM
